Experimental data reported in article PMC8217170, “Phase Ib dose-escalation study of the hypoxia-modifier Myo-inositol trispyrophosphate in patients with hepatopancreatobiliary tumors” (Nature Communications, 2021).
Several values for one entry are separate records, joined by “and”; a condition that tells them apart may be missing. Equal values may be shown once.

Key:
ANG2 = assay: Serum angiogenesis marker, multiplex bead-based immunoassay (LEGENDplex); assay type: in vivo, human; set-up: ANG2: unit not given here; settings: for ANG2: serum, duplicate wells
[1] = tested on: patients with PDAC, CRLM, CCA and HCC; assay: Progression free and overall survival; assay type: in vivo, human; settings: for Follow up from study start / Survival status: individual patients; for Survival status: per 31st of December 2018
Text: Ad hoc outcomes consisted of assessment of overall survival of patients in regard to tumor type and cohort as well as histological assessment of hypoxia markers in tumor tissue of selected patients.
Cohort size was based on the traditional 3 + 3 dose-escalation scheme without formal power or sample size calculation. Data are summarized with descriptive statistics using medians and interquartile ranges (IQRs) as indicated. Pearson’s coefficient was used to test for correlation between numerical variables, and Mann–Whitney U or Kruskal–Wallis tests for differences in continuous variables among groups. Kaplan–Meier curves and the Mantel–Cox log rank test were used for survival analyses. No adjustment for multiple testing was performed.

O=P1(O)OC2C3OP(=O)(O)OP(=O)(O)OC3C3OP(=O)(O)OP(=O)(O)OC3C2OP(=O)(O)O1 (stereo not drawn) [ITPP, Myo-inositol trispyrophosphate]
Share of patients with reduced ANG2 (ANG2; following ITPP treatment, 27 patients): 59.3% | ANG2 (ANG2; Patient 25, Cohort 8, PDAC, Day 3 post): 228.25 | ANG2 (ANG2; Patient 25, Cohort 8, PDAC, Day 9 post): 251.99 and 267.93 | ANG2 (ANG2; Patient 26, Cohort 8, PDAC, Day 3 post): 4.97 and 2.94 | ANG2 (ANG2; Patient 26, Cohort 8, PDAC, Day 9 post): 13.32 and 15.98 | ANG2 (ANG2; Patient 27, Cohort 8, CCC, Day 3 post): 207.26 and 180.83 | ANG2 (ANG2; Patient 27, Cohort 8, CCC, Day 9 post): 218.06 and 212.68 | ANG2 (ANG2; Patient 28, Cohort 8, CRLM, Day 3 post): 323.31 and 262.92 | ANG2 (ANG2; Patient 28, Cohort 8, CRLM, Day 9 post): 200.18 and 179.44 | Median OS from start of ITPP infusions ([1]; CCA): 302 days | Median progression free survival (PFS) ([1]; CCA): 158 days | Median OS from start of ITPP infusions ([1]; CRLM): 340 days | Median progression free survival (PFS) ([1]; CRLM): 23 days | Median OS from start of ITPP infusions ([1]; HCC): 684 days | Median progression free survival (PFS) ([1]; HCC): 345 days | Median OS from start of ITPP infusions ([1]; PDAC): 165 days | Median progression free survival (PFS) ([1]; PDAC): 32 days | Follow up from study start ([1]; cohort 1 (1866 mg/m2)): 16 days and 464 days and 159 days and 398 days | Survival status ([1]; cohort 1, 1866 mg/m2): Dead | Follow up from study start ([1]; cohort 2 (3732 mg/m2)): 783 days and 188 days and 158 days | Survival status ([1]; cohort 2, 3732 mg/m2): Dead | Follow up from study start ([1]; cohort 3 (5600 mg/m2)): 159 days and 171 days and 206 days | Survival status ([1]; cohort 3, 5600 mg/m2): Dead | Follow up from study start ([1]; cohort 4 (7000 mg/m2)): 193 days and 219 days and 684 days and 10 days | Survival status ([1]; cohort 4, 7000 mg/m2): Dead | Follow up from study start ([1]; cohort 5 (8750 mg/m2)): 196 days and 202 days and 68 days | Survival status ([1]; cohort 5, 8750 mg/m2): Dead | Follow up from study start ([1]; cohort 6 (10500 mg/m2)): 394 days and 510 days and 500 days and 301 days | Survival status ([1]; cohort 6, 10500 mg/m2): Dead and Alive | Follow up from study start ([1]; cohort 7 (12390 mg/m2)): 87 days and 380 days and 392 days | Survival status ([1]; cohort 7, 12390 mg/m2): Dead and Alive | Follow up from study start ([1]; cohort 8 (14500 mg/m2)): 43 days and 73 days and 266 days and 206 days | Survival status ([1]; cohort 8, 14500 mg/m2): Dead and Alive | Overall survival ([1]; patients with a lowering of PECAM1/CD31 under ITPP, p = 0.36): 380 days | Overall survival ([1]; patients with a lowering of VEGFA under ITPP, p = 0.053): 398 days | Overall survival ([1]; patients without lowering of PECAM1/CD31 under ITPP): 171 days | Overall survival ([1]; patients without lowering of VEGFA under ITPP): 196 days | Median OS from start of ITPP infusions ([1]; whole patient population): 206 days | Median progression free survival (PFS) ([1]; whole patient population): 48 days
